Results taken from ChEMBL document CHEMBL3046107, “A new isoflavone from Blepharis ciliaris of an Egyptian origin” (Med Chem Res, 2013).
Activity calls are given as the source filed them. No cut-off for these calls is given here.

Tested on: Radical scavenging activity
Assay: Antioxidant activity assessed as DPPH radical scavenging activity at 20 uM after 2 min by spectrophotometric analysis
Format: functional

| SMILES | Activity |
| --- | --- |
| O=C(/C=C/c1ccc(O)c(O)c1)OC[C@H]1O[C@@H](Oc2cc(O)c3c(c2)O[C@H](c2ccc(O)cc2)CC3=O)[C@H](O)[C@@H](O)[C@@H]1O | inactive |
| O=C(/C=C/c1ccc(O)c(O)c1)OC[C@H]1O[C@@H](Oc2cc(O)c3c(=O)c(-c4ccc(O)cc4)coc3c2)[C@H](O)[C@@H](O)[C@@H]1O | inactive |
